Values of other authors, collected in patent US9056899B2 (priority 2008, dated 2015).
≈ marks a conversion by molar mass, not a printed value. Read-outs that look alike come from different tables or passages of the source.

Experiments:
Conditions in all cases: cited from earlier work
[1] = tested on: BW25113 and gene knockouts
[2] = tested on: BW25113 and gene knockouts; remark: listed apart in the source
BW25113 gene knockouts = tested on: BW25113 gene knockouts
[3] = tested on: BW25113 and gene knockouts; remark: listed apart in the source
[4] = tested on: BW25113 and gene knockouts; remark: listed apart in the source

## CC1(C)S[C@@H]2[C@H](NC(=O)[C@H](N)c3ccccc3)C(=O)N2[C@H]1C(=O)O [Ampicillin]
[1]; BW25113 starting strain
  MIC E test: 5.0 µg/mL (≈ 14.3 µM)
[1]
  MIC E test: 1.5 µg/mL (≈ 4.29 µM)
[1]; dacA knockout
  MIC E test: 1.5 µg/mL (≈ 4.29 µM)
[1]; dapF knockout
  MIC E test: 2.0 µg/mL (≈ 5.72 µM)
[1]; pal knockout
  MIC E test: 2.0 µg/mL (≈ 5.72 µM)
[1]; rplA knockout
  MIC E test: 2.0 µg/mL (≈ 5.72 µM)
[1]; tatC knockout
  MIC E test: 3.0 µg/mL (≈ 8.59 µM)
[1]; tolC knockout
  MIC E test: 1.0 µg/mL (≈ 2.86 µM)
[2]; BW25113 starting strain
  MIC Plating: 6.0 µg/mL (≈ 17.2 µM)
[2]; JW5115 knockout
  MIC Plating: 2.0 µg/mL (≈ 5.72 µM)
[2]; acrA knockout
  MIC Plating: 1.5 µg/mL (≈ 4.29 µM)
[2]; acrB knockout
  MIC Plating: 2.0 µg/mL (≈ 5.72 µM)
[2]; atpA knockout
  MIC Plating: 2.5 µg/mL (≈ 7.15 µM)
[2]
  MIC Plating: 1.5 µg/mL (≈ 4.29 µM)
[2]; dacA knockout
  MIC Plating: 1.5 µg/mL (≈ 4.29 µM)
[2]; dapF knockout
  MIC Plating: 1.0 µg/mL (≈ 2.86 µM)
[2]; dcd knockout
  MIC Plating: 2.5 µg/mL (≈ 7.15 µM)
[2]; ddlB knockout
  MIC Plating: 1.0 µg/mL (≈ 2.86 µM)
[2]; dedD knockout
  MIC Plating: 2.0 µg/mL (≈ 5.72 µM)
[2]; deoT knockout
  MIC Plating: 2.0 µg/mL (≈ 5.72 µM)
[2]; dksA knockout
  MIC Plating: 2.0 µg/mL (≈ 5.72 µM)
[2]; emtA knockout
  MIC Plating: 2.0 µg/mL (≈ 5.72 µM)
[2]; envC knockout
  MIC Plating: 1.5 µg/mL (≈ 4.29 µM)
[2]; fkpB knockout
  MIC Plating: 2.5 µg/mL (≈ 7.15 µM)
[2]; gpmM knockout
  MIC Plating: 1.5 µg/mL (≈ 4.29 µM)
[2]; hscA knockout
  MIC Plating: 2.0 µg/mL (≈ 5.72 µM)
[2]; hscB knockout
  MIC Plating: 2.5 µg/mL (≈ 7.15 µM)
[2]; lptB knockout
  MIC Plating: 2.0 µg/mL (≈ 5.72 µM)
[2]; mrcB knockout
  MIC Plating: 2.0 µg/mL (≈ 5.72 µM)
[2]; pal knockout
  MIC Plating: 1.5 µg/mL (≈ 4.29 µM)
[2]; pgmB knockout
  MIC Plating: 1.5 µg/mL (≈ 4.29 µM)
[2]; phoP knockout
  MIC Plating: 2.0 µg/mL (≈ 5.72 µM)
[2]; qmcA knockout
  MIC Plating: 2.5 µg/mL (≈ 7.15 µM)
[2]; rimK knockout
  MIC Plating: 2.0 µg/mL (≈ 5.72 µM)
[2]; rplA knockout
  MIC Plating: 2.0 µg/mL (≈ 5.72 µM)
[2]; rpmF knockout
  MIC Plating: 1.5 µg/mL (≈ 4.29 µM)
[2]; rpsF knockout
  MIC Plating: 2.0 µg/mL (≈ 5.72 µM)
[2]; rrmJ knockout
  MIC Plating: 1.5 µg/mL (≈ 4.29 µM)
[2]; skp knockout
  MIC Plating: 2.0 µg/mL (≈ 5.72 µM)
[2]; sufI knockout
  MIC Plating: 2.0 µg/mL (≈ 5.72 µM)
[2]; surA knockout
  MIC Plating: 2.0 µg/mL (≈ 5.72 µM)
[2]; tatC knockout
  MIC Plating: 2.0 µg/mL (≈ 5.72 µM)
[2]; tolC knockout
  MIC Plating: 2.0 µg/mL (≈ 5.72 µM)
[2]; tolR knockout
  MIC Plating: 2.0 µg/mL (≈ 5.72 µM)
[2]; ubiG knockout
  MIC Plating: 2.0 µg/mL (≈ 5.72 µM)
[2]; xapR knockout
  MIC Plating: 1.5 µg/mL (≈ 4.29 µM)
[2]; ybeD knockout
  MIC Plating: 2.0 µg/mL (≈ 5.72 µM)
[2]; ybeY knockout
  MIC Plating: 2.0 µg/mL (≈ 5.72 µM)
[2]; ybgF knockout
  MIC Plating: 1.5 µg/mL (≈ 4.29 µM)
[2]; ybhT knockout
  MIC Plating: 2.0 µg/mL (≈ 5.72 µM)
[2]; yciM knockout
  MIC Plating: 1.5 µg/mL (≈ 4.29 µM)
[2]; yfgC knockout
  MIC Plating: 1.5 µg/mL (≈ 4.29 µM)
[2]; yfgL knockout
  MIC Plating: 2.0 µg/mL (≈ 5.72 µM)
[2]; ygcO knockout
  MIC Plating: 2.0 µg/mL (≈ 5.72 µM)
[2]; yjjY knockout
  MIC Plating: 1.5 µg/mL (≈ 4.29 µM)

## CN[C@H](CC(C)C)C(=O)N[C@H]1C(=O)N[C@@H](CC(N)=O)C(=O)N[C@H]2C(=O)N[C@H]3C(=O)N[C@H](C(=O)N[C@H](C(=O)O)c4cc(O)cc(O)c4-c4cc3ccc4O)[C@H](O)c3ccc(c(Cl)c3)Oc3cc2cc(c3O[C@@H]2O[C@H](CO)[C@@H](O)[C@H](O)[C@H]2O[C@H]2C[C@](C)(N)[C@H](O)[C@H](C)O2)Oc2ccc(cc2Cl)[C@H]1O [Vancomycin]
BW25113 gene knockouts; lptB knockout
  MIC E test: 2.0 µg/mL (≈ 1.38 µM)
BW25113 gene knockouts; pal knockout
  MIC E test: 96 µg/mL (≈ 66.2 µM)
BW25113 gene knockouts; smpA knockout
  MIC E test: 70 µg/mL (≈ 48.3 µM)
BW25113 gene knockouts; surA knockout
  MIC E test: 4 µg/mL (≈ 2.76 µM)
[3]; BW25113 starting strain
  MIC Plating: 500 µg/mL (≈ 345 µM)
[3]; dksA knockout
  MIC Plating: 125 µg/mL (≈ 86.3 µM)
[3]; elaD knockout
  MIC Plating: 150 µg/mL (≈ 104 µM)
[3]; envC knockout
  MIC Plating: 150 µg/mL (≈ 104 µM)
[3]; envZ knockout
  MIC Plating: 150 µg/mL (≈ 104 µM)
[3]; fepC knockout
  MIC Plating: 150 µg/mL (≈ 104 µM)
[3]; hns knockout
  MIC Plating: 150 µg/mL (≈ 104 µM)
[3]; hscB knockout
  MIC Plating: 150 µg/mL (≈ 104 µM)
[3]; lptB knockout
  MIC Plating: 150 µg/mL (≈ 104 µM)
[3]; msbB knockout
  MIC Plating: 150 µg/mL (≈ 104 µM)
[3]; oxyR knockout
  MIC Plating: 150 µg/mL (≈ 104 µM)
[3]; pal knockout
  MIC Plating: 100 µg/mL (≈ 69 µM)
[3]; pgmB knockout
  MIC Plating: 100 µg/mL (≈ 69 µM)
[3]; proW knockout
  MIC Plating: 150 µg/mL (≈ 104 µM)
[3]; rimK knockout
  MIC Plating: 150 µg/mL (≈ 104 µM)
[3]; rpmJ knockout
  MIC Plating: 150 µg/mL (≈ 104 µM)
[3]; rrmJ knockout
  MIC Plating: 150 µg/mL (≈ 104 µM)
[3]; skp knockout
  MIC Plating: 75 µg/mL (≈ 51.8 µM)
[3]; smpA knockout
  MIC Plating: 100 µg/mL (≈ 69 µM)
[3]; surA knockout
  MIC Plating: 8 µg/mL (≈ 5.52 µM)
[3]; tonB knockout
  MIC Plating: 125 µg/mL (≈ 86.3 µM)
[3]; tusC knockout
  MIC Plating: 150 µg/mL (≈ 104 µM)
[3]; tusD knockout
  MIC Plating: 150 µg/mL (≈ 104 µM)
[3]; xapR knockout
  MIC Plating: 100 µg/mL (≈ 69 µM)
[3]; ybgF knockout
  MIC Plating: 100 µg/mL (≈ 69 µM)
[3]; ycbR knockout
  MIC Plating: 150 µg/mL (≈ 104 µM)
[3]; yciM knockout
  MIC Plating: 100 µg/mL (≈ 69 µM)
[3]; ydfP knockout
  MIC Plating: 150 µg/mL (≈ 104 µM)
[3]; ydjI knockout
  MIC Plating: 100 µg/mL (≈ 69 µM)
[3]; yfgC knockout
  MIC Plating: 150 µg/mL (≈ 104 µM)
[3]; yfgL knockout
  MIC Plating: 150 µg/mL (≈ 104 µM)
[3]; yhdP knockout
  MIC Plating: 125 µg/mL (≈ 86.3 µM)

## Cc1cc(NS(=O)(=O)c2ccc(N)cc2)no1 [Sulfamethaxazone]
[4]; BW25113 starting strain
  MIC Plating: 1000 µg/mL (≈ 3950 µM)
[4]; JW5115 knockout
  MIC Plating: 400 µg/mL (≈ 1580 µM)
[4]; JW5474 knockout
  MIC Plating: 500 µg/mL (≈ 1970 µM)
[4]; dapF knockout
  MIC Plating: 300 µg/mL (≈ 1180 µM)
[4]; dcd knockout
  MIC Plating: >550 µg/mL
[4]; degP knockout
  MIC Plating: 500 µg/mL (≈ 1970 µM)
[4]; deoT knockout
  MIC Plating: 550 µg/mL (≈ 2170 µM)
[4]; dksA knockout
  MIC Plating: 550 µg/mL (≈ 2170 µM)
[4]; dnaK knockout
  MIC Plating: 300 µg/mL (≈ 1180 µM)
[4]; envC knockout
  MIC Plating: 400 µg/mL (≈ 1580 µM)
[4]; fis knockout
  MIC Plating: 600 µg/mL (≈ 2370 µM)
[4]; gpmM knockout
  MIC Plating: 400 µg/mL (≈ 1580 µM)
[4]; hns knockout
  MIC Plating: 550 µg/mL (≈ 2170 µM)
[4]; lpdA knockout
  MIC Plating: 400 µg/mL (≈ 1580 µM)
[4]; lptB knockout
  MIC Plating: 500 µg/mL (≈ 1970 µM)
[4]; nudB knockout
  MIC Plating: 350 µg/mL (≈ 1380 µM)
[4]; pgmB knockout
  MIC Plating: 500 µg/mL (≈ 1970 µM)
[4]; pstA knockout
  MIC Plating: 550 µg/mL (≈ 2170 µM)
[4]; pstS knockout
  MIC Plating: 550 µg/mL (≈ 2170 µM)
[4]; qmcA knockout
  MIC Plating: 550 µg/mL (≈ 2170 µM)
[4]; recA knockout
  MIC Plating: 400 µg/mL (≈ 1580 µM)
[4]; recB knockout
  MIC Plating: 350 µg/mL (≈ 1380 µM)
[4]; recC knockout
  MIC Plating: 350 µg/mL (≈ 1380 µM)
[4]; recG knockout
  MIC Plating: 500 µg/mL (≈ 1970 µM)
[4]; resA knockout
  MIC Plating: >550 µg/mL
[4]; rfaE knockout
  MIC Plating: 550 µg/mL (≈ 2170 µM)
[4]; rimK knockout
  MIC Plating: 350 µg/mL (≈ 1380 µM)
[4]; rplA knockout
  MIC Plating: 500 µg/mL (≈ 1970 µM)
[4]; rpmF knockout
  MIC Plating: 550 µg/mL (≈ 2170 µM)
[4]; rpsU knockout
  MIC Plating: 500 µg/mL (≈ 1970 µM)
[4]; tolC knockout
  MIC Plating: 400 µg/mL (≈ 1580 µM)
[4]; xapR knockout
  MIC Plating: >550 µg/mL
[4]; ybeY knockout
  MIC Plating: 500 µg/mL (≈ 1970 µM)
[4]; ybgF knockout
  MIC Plating: >550 µg/mL
[4]; yciM knockout
  MIC Plating: >550 µg/mL
[4]; yciS knockout
  MIC Plating: 550 µg/mL (≈ 2170 µM)
[4]; ydjI knockout
  MIC Plating: >550 µg/mL
[4]; yfgL knockout
  MIC Plating: 400 µg/mL (≈ 1580 µM)
[4]; ygcO knockout
  MIC Plating: 550 µg/mL (≈ 2170 µM)
[4]; yiiU knockout
  MIC Plating: 550 µg/mL (≈ 2170 µM)
[4]; yjjY knockout
  MIC Plating: >550 µg/mL
[4]; ylcG knockout
  MIC Plating: 500 µg/mL (≈ 1970 µM)
[4]; ymfI knockout
  MIC Plating: 500 µg/mL (≈ 1970 µM)
[4]; yneE knockout
  MIC Plating: 550 µg/mL (≈ 2170 µM)
